Experimental data: PubChem BioAssay AID1963974 (Molecular Pharmacology Branch, DTP, NCI, 2024)

Tested on: 648629-189-R-J1-PDC spheroids with HUVEC/MSC, viability
Assay: Anticancer human tumor 648629-189-R-J1-PDC patient-derived bladder carcinoma cell line growth inhibition [PI3K]
Details: for IC50: curve of first compound; for viability, T/C: stronger effect = lower value
Source text: Combinatorial screen of targeted agents with the PI3K inhibitors inavolisib, alpelisib, duvelisib, and copanlisib in multi-cell type tumor spheroids
A high-throughput screen of multi-cell type tumor spheroids was designed to identify active combinations of targeted small molecules and PI3K pathway inhibitors. Complex spheroids include a stromal component modeled by human endothelial cells (HUVEC) and fibroblasts modeled by human mesenchymal stem cells (MSCs). The concentration ranges selected for each drug and investigational agent were based upon clinically achievable concentrations if the clinical Cmax of the agent was known.
Compounds. The drugs and investigational agents: inavolisib (NSC800729), alpelisib (NSC765974), duvelisib (NSC772469), copanlisib (NSC816437), ipatasertib (NSC767898), afuresertib (NSC778305), talazoparib (NSC767125), sapanisertib (NSC764658), selumetinib (NSC741078), tovorafenib (DAY101, NSC766906), vemurafenib (NSC761431), ravoxertinib (NSC781343), sotorasib (NSC818433), MRTX1133 (NSC 836407), abemaciclib (NSC 768073), palbociclib (NSC758247), venetoclax (NSC 766270), SY5609 (NSC837396), enzalutamide (NSC755605), and darolutamide (NSC825331), were obtained from the National Cancer Institute (NCI) Developmental Therapeutics Program Chemical Repository. The FDA-approved anticancer drug set is available from the NCI Developmental Therapeutics Program. […] The stock solutions were prepared in dimethyl sulfoxide (DMSO, Sigma-Aldrich, St. Louis, MO, cat. D2650) at 800-fold the tested concentration and stored at -70 degrees C prior to their use. All drugs and investigational agents were tested over a range starting from a high concentration at or near the clinical Cmax and decreasing in half-log increments. If the clinical Cmax for an agent had not been determined, the highest concentration tested was 10 microM.
Cell Culture. All cells were maintained in an incubator at 37 degrees C and 5% CO2 with 95% humidity. The PDC lines were cultured according to standard operating procedures established by the NCI PDMR (https://pdmr.cancer.gov/sops/default.htm). All PDCs were thawed and cultured in Matrigel-coated flasks prepared with a working solution of 1X Ham's F-12 nutrient mix, without supplementation (Invitrogen, Waltham, MA, cat. 11765054), 100 U/mL penicillin-streptomycin (Invitrogen, cat. 15140122), and 2.5% Matrigel (Corning Inc., Corning, NY, cat. 354248) for the first three passages. The 354836-022-R-J1-PDC, 475296-252-R-J1-PDC, and 997726-040-R-J2-PDC lines were cultured in 6A media, which includes advanced DMEM/F-12 (Thermo Fisher Scientific, cat. 12634028), 10 mM HEPES (Thermo Fisher Scientific, cat. 15630080), 1X GlutaMAX supplement (Thermo Fisher Scientific, cat. 35050061), 0.1 mg/mL primocin (InvivoGen, San Diego, CA, cat. ant-pm-2), 10% defined fetal bovine serum, heat inactivated (HyClone Laboratories Inc., Logan, UT, cat. SH30070.03HI), 50% L-WRN conditioned media (ATCC, cat. CRL-3276), 1.25 mM N-Acetyl-L-cysteine (Sigma-Aldrich, cat. A9165), 10 mM nicotinamide (Sigma-Aldrich, cat. N0636), 1X B-27 supplement (Thermo Fisher Scientific, cat. 17504044), 1X N-2 supplement (Thermo Fisher Scientific, cat. 17502048), and 10 microM Y-27632 dihydrochloride (Tocris Bioscience, Bristol, United Kingdom, cat. 1254). The 624824-186-R-J2-PDC line was cultured in 6C/Colon 1B media, which includes all 6A media components plus 50 ng/mL human EGF recombinant protein (Thermo Fisher Scientific, cat. PHG0311). […]

[1] = second compound 0.0316 µM, first compound 0.0316 µM
[2] = second compound 0.0316 µM, first compound 0.1 µM
[3] = second compound 0.1 µM, first compound 0.0316 µM
[4] = second compound 0.1 µM, first compound 0.1 µM
[5] = second compound 0.316 µM, first compound 0.0316 µM
[6] = second compound 0.316 µM, first compound 0.1 µM
[7] = second compound 1 µM, first compound 0.0316 µM
[8] = second compound 1 µM, first compound 0.1 µM
[9] = second compound 3.16 µM, first compound 0.0316 µM
[10] = second compound 3.16 µM, first compound 0.1 µM
[11] = second compound 10 µM, first compound 0.0316 µM
[12] = second compound 10 µM, first compound 0.1 µM
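Also: spheroids exposed to agents for seven days before reading.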
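For viability, T/C in this document: percent of vehicle control luminescence where 100% = DMSO treated spheroids.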

## CC(=O)c1c(C)c2cnc(Nc3ccc(N4CCNCC4)cn3)nc2n(C2CCCC2)c1=O + Cc1nc(NC(=O)N2CCCC2C(N)=O)sc1-c1ccnc(C(C)(C)C(F)(F)F)c1
Second compound 0.0316 µM
  IC50: > 0.1 µM
Second compound 0.1 µM
  IC50: > 0.1 µM
Second compound 0.316 µM
  IC50: > 0.1 µM
Second compound 1 µM
  IC50: > 0.1 µM
Second compound 3.16 µM
  IC50: > 0.1 µM
Second compound 10 µM
  IC50: < 0.000316 µM
Second compound 0.0316 µM, first compound 0.000316 µM
  viability, T/C: 91.4%
Second compound 0.0316 µM, first compound 0.001 µM
  viability, T/C: 91.7%
Second compound 0.0316 µM, first compound 0.00316 µM
  viability, T/C: 100%
Second compound 0.0316 µM, first compound 0.01 µM
  viability, T/C: 100%
[1]
  viability, T/C: 96.6%
[2]
  viability, T/C: 101%
Second compound 0.1 µM, first compound 0.000316 µM
  viability, T/C: 91.1%
Second compound 0.1 µM, first compound 0.001 µM
  viability, T/C: 96.9%
Second compound 0.1 µM, first compound 0.00316 µM
  viability, T/C: 93.7%
Second compound 0.1 µM, first compound 0.01 µM
  viability, T/C: 91.9%
[3]
  viability, T/C: 107%
[4]
  viability, T/C: 91.2%
Second compound 0.316 µM, first compound 0.000316 µM
  viability, T/C: 80.9%
Second compound 0.316 µM, first compound 0.001 µM
  viability, T/C: 86.1%
Second compound 0.316 µM, first compound 0.00316 µM
  viability, T/C: 85.1%
Second compound 0.316 µM, first compound 0.01 µM
  viability, T/C: 84.1%
[5]
  viability, T/C: 90.2%
[6]
  viability, T/C: 85.3%
Second compound 1 µM, first compound 0.000316 µM
  viability, T/C: 72.4%
Second compound 1 µM, first compound 0.001 µM
  viability, T/C: 68.1%
Second compound 1 µM, first compound 0.00316 µM
  viability, T/C: 73.7%
Second compound 1 µM, first compound 0.01 µM
  viability, T/C: 71.7%
[7]
  viability, T/C: 70.5%
[8]
  viability, T/C: 71.9%
Second compound 3.16 µM, first compound 0.000316 µM
  viability, T/C: 52.6%
Second compound 3.16 µM, first compound 0.001 µM
  viability, T/C: 53.2%
Second compound 3.16 µM, first compound 0.00316 µM
  viability, T/C: 61.6%
Second compound 3.16 µM, first compound 0.01 µM
  viability, T/C: 54.9%
[9]
  viability, T/C: 54.6%
[10]
  viability, T/C: 54.6%
Second compound 10 µM, first compound 0.000316 µM
  viability, T/C: 36.5%
Second compound 10 µM, first compound 0.001 µM
  viability, T/C: 44.9%
Second compound 10 µM, first compound 0.00316 µM
  viability, T/C: 38.9%
Second compound 10 µM, first compound 0.01 µM
  viability, T/C: 30.1%
[11]
  viability, T/C: 44.1%
[12]
  viability, T/C: 34%

## CC1(C)CCC(CN2CCN(c3ccc(C(=O)NS(=O)(=O)c4ccc(NCC5CCOCC5)c([N+](=O)[O-])c4)c(Oc4cnc5[nH]ccc5c4)c3)CC2)=C(c2ccc(Cl)cc2)C1 + CC(Nc1ncnc2nc[nH]c12)c1cc2cccc(Cl)c2c(=O)n1-c1ccccc1
Second compound 0.0316 µM
  IC50: > 10 µM
Second compound 0.1 µM
  IC50: > 10 µM
Second compound 0.316 µM
  IC50: > 10 µM
Second compound 1 µM
  IC50: > 10 µM
Second compound 3.16 µM
  IC50: > 10 µM
Second compound 10 µM
  IC50: > 10 µM
[1]
  viability, T/C: 112%
[2]
  viability, T/C: 95.7%
Second compound 0.0316 µM, first compound 0.316 µM
  viability, T/C: 97.3%
Second compound 0.0316 µM, first compound 1 µM
  viability, T/C: 93.1%
Second compound 0.0316 µM, first compound 3.16 µM
  viability, T/C: 83.4%
Second compound 0.0316 µM, first compound 10 µM
  viability, T/C: 70.3%
[3]
  viability, T/C: 102%
[4]
  viability, T/C: 85%
Second compound 0.1 µM, first compound 0.316 µM
  viability, T/C: 104%
Second compound 0.1 µM, first compound 1 µM
  viability, T/C: 92.3%
Second compound 0.1 µM, first compound 3.16 µM
  viability, T/C: 89.4%
Second compound 0.1 µM, first compound 10 µM
  viability, T/C: 64%
[5]
  viability, T/C: 92.2%
[6]
  viability, T/C: 109%
Second compound 0.316 µM, first compound 0.316 µM
  viability, T/C: 95.8%
Second compound 0.316 µM, first compound 1 µM
  viability, T/C: 94.5%
Second compound 0.316 µM, first compound 3.16 µM
  viability, T/C: 97.9%
Second compound 0.316 µM, first compound 10 µM
  viability, T/C: 65.9%
[7]
  viability, T/C: 95.6%
[8]
  viability, T/C: 108%
Second compound 1 µM, first compound 0.316 µM
  viability, T/C: 102%
Second compound 1 µM, first compound 1 µM
  viability, T/C: 85.4%
Second compound 1 µM, first compound 3.16 µM
  viability, T/C: 90.2%
Second compound 1 µM, first compound 10 µM
  viability, T/C: 68.4%
[9]
  viability, T/C: 103%
[10]
  viability, T/C: 101%
Second compound 3.16 µM, first compound 0.316 µM
  viability, T/C: 91.2%
Second compound 3.16 µM, first compound 1 µM
  viability, T/C: 99.5%
Second compound 3.16 µM, first compound 3.16 µM
  viability, T/C: 88.6%
Second compound 3.16 µM, first compound 10 µM
  viability, T/C: 60.1%
[11]
  viability, T/C: 83.7%
[12]
  viability, T/C: 97%
Second compound 10 µM, first compound 0.316 µM
  viability, T/C: 87.8%
Second compound 10 µM, first compound 1 µM
  viability, T/C: 84.8%
Second compound 10 µM, first compound 3.16 µM
  viability, T/C: 68.9%
Second compound 10 µM, first compound 10 µM
  viability, T/C: 59.2%
